As usually defined, the inhibition is the relative decrease from the control value, in per cent.

What all share (assay): Eurofins kinase panel
Common to all, as to format: biochemical
Conditions in all cases: read-out: Inhibition rate (%)

One test concerns the target T1, Fgr(h) (Homo sapiens, UniProt P09769).
T1 construct: purchased Eurofins (KinaseProfiler)

The target in another test is T2, KDR(h) (Homo sapiens, UniProt P35968).
T2 construct: purchased Eurofins (KinaseProfiler)

For another test, the target named is T3, Pyk2(h) (Homo sapiens, UniProt Q14289).
T3 construct: purchased Eurofins (KinaseProfiler)
T3 sequence (Q14289 whole entry): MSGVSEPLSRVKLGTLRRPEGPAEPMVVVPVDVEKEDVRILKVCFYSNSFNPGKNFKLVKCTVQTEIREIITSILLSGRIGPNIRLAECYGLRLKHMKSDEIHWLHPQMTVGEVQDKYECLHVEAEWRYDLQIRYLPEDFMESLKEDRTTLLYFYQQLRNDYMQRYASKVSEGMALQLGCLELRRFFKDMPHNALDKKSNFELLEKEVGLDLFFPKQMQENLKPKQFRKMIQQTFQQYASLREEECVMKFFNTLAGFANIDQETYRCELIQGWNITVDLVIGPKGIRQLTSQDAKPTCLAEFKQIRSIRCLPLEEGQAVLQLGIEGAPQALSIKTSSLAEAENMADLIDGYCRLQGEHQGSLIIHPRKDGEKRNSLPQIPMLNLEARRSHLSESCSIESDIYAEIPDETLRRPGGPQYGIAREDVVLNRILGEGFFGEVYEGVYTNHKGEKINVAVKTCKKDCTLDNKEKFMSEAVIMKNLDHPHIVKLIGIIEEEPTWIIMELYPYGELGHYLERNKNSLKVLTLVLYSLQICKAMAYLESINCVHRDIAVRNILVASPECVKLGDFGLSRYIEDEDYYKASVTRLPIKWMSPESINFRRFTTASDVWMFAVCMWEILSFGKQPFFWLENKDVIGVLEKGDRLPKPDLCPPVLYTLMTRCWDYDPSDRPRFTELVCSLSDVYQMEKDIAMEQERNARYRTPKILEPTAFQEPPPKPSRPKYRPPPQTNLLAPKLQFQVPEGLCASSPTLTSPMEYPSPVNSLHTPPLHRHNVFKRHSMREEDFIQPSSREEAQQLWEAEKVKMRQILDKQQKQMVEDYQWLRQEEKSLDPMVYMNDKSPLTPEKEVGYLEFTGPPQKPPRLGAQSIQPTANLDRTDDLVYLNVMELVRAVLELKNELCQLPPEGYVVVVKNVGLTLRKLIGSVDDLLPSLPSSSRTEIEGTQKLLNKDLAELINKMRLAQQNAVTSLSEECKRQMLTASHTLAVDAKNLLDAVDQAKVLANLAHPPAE

The next test concerns the target T4, CaMKIIδ(h) (Homo sapiens, UniProt Q13557).
T4 construct: purchased Eurofins (KinaseProfiler)

For a further test, the target named is T5, EphA1(h) (Homo sapiens, UniProt P21709).
T5 construct: purchased Eurofins (KinaseProfiler)
T5 sequence (P21709 26-976): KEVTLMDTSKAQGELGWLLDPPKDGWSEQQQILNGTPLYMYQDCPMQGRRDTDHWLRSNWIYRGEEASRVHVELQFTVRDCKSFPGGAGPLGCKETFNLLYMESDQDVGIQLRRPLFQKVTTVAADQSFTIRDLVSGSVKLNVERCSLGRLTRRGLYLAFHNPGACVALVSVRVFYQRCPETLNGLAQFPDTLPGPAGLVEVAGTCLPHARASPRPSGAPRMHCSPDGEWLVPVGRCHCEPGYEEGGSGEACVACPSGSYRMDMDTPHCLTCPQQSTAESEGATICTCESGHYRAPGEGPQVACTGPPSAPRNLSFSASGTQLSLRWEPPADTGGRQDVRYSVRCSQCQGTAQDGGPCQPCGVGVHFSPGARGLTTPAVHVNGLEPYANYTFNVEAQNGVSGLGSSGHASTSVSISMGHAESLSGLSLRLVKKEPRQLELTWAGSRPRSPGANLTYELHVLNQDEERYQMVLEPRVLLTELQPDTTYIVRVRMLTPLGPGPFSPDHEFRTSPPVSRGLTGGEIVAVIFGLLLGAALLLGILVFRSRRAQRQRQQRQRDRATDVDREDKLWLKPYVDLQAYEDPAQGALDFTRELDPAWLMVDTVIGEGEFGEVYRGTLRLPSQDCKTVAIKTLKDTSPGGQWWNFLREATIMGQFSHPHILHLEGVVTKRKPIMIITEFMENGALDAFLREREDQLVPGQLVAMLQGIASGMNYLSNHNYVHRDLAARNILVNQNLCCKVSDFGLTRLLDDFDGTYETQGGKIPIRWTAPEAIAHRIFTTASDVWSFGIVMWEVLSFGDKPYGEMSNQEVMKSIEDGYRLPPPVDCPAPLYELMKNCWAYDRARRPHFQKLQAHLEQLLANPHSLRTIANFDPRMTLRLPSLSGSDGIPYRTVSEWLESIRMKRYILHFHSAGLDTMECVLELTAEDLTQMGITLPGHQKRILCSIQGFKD

For another test, the target named is T6, PrKX(h) (Homo sapiens, UniProt P51817).
T6 construct: purchased Eurofins (KinaseProfiler)
T6 sequence (P51817 1-358): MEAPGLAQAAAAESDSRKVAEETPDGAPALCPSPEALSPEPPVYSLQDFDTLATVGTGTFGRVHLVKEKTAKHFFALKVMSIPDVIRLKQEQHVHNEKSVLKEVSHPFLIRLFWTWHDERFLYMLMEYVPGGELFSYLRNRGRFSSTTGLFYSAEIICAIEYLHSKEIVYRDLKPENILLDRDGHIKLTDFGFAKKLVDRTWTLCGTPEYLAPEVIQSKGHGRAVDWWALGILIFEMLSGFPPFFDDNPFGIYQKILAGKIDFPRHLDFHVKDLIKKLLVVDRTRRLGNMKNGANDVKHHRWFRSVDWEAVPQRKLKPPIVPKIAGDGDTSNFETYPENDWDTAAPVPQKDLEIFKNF

A further test addresses T7, MEK2(h) (Homo sapiens, UniProt P36507).
T7 construct: purchased Eurofins (KinaseProfiler)

A further test concerns the target T8, DDR2(h) (Homo sapiens, UniProt Q16832).
T8 construct: purchased Eurofins (KinaseProfiler)
T8 sequence (Q16832 22-855): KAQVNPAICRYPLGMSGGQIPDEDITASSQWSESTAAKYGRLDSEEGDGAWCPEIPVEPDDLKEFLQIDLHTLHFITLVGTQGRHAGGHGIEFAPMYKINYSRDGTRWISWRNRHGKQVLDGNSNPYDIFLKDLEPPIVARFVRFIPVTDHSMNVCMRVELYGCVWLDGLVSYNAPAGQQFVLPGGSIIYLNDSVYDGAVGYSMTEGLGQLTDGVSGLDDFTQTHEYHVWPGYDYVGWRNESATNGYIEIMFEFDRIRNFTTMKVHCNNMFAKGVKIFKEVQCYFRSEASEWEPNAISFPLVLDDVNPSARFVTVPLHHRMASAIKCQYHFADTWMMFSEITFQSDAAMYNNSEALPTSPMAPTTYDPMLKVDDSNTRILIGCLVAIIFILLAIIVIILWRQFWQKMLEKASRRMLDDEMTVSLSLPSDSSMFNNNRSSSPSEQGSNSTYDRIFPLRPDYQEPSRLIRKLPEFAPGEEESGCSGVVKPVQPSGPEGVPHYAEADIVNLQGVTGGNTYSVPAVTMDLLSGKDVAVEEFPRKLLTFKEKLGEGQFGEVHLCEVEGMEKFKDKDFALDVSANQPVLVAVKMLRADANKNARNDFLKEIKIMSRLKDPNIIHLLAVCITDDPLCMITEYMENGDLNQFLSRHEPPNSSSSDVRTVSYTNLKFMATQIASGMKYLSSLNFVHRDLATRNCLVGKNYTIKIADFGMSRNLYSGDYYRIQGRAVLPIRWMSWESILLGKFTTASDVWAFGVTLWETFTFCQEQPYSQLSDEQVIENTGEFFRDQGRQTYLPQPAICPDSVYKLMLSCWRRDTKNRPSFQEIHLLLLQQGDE

T2 sequence (P35968 20-1356): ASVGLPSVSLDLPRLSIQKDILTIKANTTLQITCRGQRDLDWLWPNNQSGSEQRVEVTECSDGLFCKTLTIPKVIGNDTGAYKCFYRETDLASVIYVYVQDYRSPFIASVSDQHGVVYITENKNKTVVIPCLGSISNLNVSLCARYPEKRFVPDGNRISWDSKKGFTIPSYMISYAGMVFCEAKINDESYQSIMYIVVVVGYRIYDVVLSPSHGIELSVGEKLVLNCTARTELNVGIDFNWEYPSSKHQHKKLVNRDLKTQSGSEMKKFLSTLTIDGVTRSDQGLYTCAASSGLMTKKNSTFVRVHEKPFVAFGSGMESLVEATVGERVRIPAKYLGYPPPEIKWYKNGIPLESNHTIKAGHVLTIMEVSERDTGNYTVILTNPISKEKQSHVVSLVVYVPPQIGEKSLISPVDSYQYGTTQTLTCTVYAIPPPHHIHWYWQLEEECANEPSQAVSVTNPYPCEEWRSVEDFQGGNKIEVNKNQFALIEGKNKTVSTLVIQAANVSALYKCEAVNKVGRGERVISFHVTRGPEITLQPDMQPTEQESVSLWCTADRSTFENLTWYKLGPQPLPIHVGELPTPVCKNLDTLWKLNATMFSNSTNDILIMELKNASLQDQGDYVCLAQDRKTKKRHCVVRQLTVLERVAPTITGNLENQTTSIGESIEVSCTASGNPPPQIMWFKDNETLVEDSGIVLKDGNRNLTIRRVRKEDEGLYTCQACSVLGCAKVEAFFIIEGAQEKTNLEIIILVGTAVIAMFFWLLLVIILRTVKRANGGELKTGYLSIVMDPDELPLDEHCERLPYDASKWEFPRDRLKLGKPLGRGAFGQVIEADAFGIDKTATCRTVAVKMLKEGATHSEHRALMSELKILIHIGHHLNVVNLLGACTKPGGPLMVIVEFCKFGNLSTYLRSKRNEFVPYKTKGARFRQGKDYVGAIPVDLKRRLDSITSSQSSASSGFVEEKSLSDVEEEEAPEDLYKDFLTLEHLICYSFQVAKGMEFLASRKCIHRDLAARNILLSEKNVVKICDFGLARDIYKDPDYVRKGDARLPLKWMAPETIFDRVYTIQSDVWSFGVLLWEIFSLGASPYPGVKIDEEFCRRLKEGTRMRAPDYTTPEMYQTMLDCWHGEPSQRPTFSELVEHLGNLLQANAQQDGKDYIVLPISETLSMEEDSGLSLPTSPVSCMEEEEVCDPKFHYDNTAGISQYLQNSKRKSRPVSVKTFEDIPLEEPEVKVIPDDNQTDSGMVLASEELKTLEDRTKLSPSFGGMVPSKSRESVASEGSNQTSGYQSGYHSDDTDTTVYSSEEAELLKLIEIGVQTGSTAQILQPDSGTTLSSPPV
T1 sequence (P09769 whole entry): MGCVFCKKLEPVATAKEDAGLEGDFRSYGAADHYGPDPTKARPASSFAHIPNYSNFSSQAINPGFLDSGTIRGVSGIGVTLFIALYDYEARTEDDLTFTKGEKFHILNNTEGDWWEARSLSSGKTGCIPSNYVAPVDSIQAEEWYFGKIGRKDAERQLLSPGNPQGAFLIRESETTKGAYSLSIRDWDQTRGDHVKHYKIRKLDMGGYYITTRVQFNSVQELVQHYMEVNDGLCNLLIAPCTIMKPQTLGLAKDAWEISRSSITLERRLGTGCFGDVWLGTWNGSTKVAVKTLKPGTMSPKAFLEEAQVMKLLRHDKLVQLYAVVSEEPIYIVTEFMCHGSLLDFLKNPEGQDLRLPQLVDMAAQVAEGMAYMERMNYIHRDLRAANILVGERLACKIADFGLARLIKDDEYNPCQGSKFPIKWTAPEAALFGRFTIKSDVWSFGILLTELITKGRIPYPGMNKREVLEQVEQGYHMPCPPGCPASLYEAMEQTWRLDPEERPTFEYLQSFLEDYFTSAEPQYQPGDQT
T7 sequence (P36507 whole entry): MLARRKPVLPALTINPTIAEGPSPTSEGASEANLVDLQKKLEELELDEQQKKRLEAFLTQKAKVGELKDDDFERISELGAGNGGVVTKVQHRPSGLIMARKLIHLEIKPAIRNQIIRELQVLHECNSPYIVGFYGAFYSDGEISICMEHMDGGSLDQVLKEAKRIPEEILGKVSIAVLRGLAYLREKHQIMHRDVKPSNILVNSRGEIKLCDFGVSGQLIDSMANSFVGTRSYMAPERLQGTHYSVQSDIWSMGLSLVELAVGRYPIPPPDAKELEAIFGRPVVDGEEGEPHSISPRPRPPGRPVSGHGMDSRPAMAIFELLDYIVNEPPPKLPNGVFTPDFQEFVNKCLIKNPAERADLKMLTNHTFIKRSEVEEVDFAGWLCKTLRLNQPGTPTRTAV
T4 sequence (Q13557 whole entry): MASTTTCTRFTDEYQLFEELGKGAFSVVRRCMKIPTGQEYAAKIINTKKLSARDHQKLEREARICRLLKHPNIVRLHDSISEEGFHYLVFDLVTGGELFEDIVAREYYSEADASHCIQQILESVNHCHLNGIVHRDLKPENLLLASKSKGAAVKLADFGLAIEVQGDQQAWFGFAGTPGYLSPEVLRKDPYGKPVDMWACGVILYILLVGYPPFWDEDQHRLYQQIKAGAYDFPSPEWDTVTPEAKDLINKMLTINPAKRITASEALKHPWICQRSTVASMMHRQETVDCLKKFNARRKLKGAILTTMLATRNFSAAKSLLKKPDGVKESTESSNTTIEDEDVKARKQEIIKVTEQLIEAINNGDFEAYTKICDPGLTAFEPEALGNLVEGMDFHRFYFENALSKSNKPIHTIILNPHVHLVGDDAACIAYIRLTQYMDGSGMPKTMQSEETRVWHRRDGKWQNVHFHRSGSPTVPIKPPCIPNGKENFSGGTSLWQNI

As for `COc1cc(OC)c(Cl)c(-c2ccc3c(NC(=O)c4ccc(N5CCNC(C)(C)C5)cc4)n[nH]c3n2)c1Cl` [3D185], the inhibition at 0.01 µM on Fgr(h) (10 nM) is 11%; at KDR(h) (10 nM), -2%; on Pyk2(h) (10 nM), 2%; at CaMKIIδ(h) (10 nM), -1%; at EphA1(h) (10 nM), 0%; on PrKX(h) (10 nM), 8%. The inhibition at 0.01 µM at MEK2(h) (10 nM) was -18%; at DDR2(h) (10 nM), 0%. The inhibition at 0.1 µM at Fgr(h) (100 nM) is 44%; at KDR(h) (100 nM) it was 1%; on Pyk2(h) (100 nM), 24%; on CaMKIIδ(h) (100 nM), -3%; on EphA1(h) (100 nM), -14%; on PrKX(h) (100 nM), 11%. Besides, the results for the inhibition at 0.1 µM on MEK2(h) (100 nM) and at DDR2(h) (100 nM) were -19% and 7%, respectively. The inhibition at 1 µM is 89% at Fgr(h) (1000 nM); 10% on KDR(h) (1000 nM); 71% on Pyk2(h) (1000 nM); -3% at CaMKIIδ(h) (1000 nM); -6% on EphA1(h) (1000 nM); 5% on PrKX(h) (1000 nM). Besides, the inhibition at 1 µM on MEK2(h) (1000 nM) was 8%; on DDR2(h) (1000 nM) it was 54%.

The record behind these values is PMC6704710, “Preclinical evaluation of 3D185, a novel potent inhibitor of FGFR1/2/3 and CSF-1R, in FGFR-dependent and macrophage-dominant cancer models” (Journal of Experimental & Clinical Cancer Research : CR, 2019).
